The values that follow come from PMC10120312 (Cell Insight, 2022).

The test system of assay [1] is EV-A71. The assay can be described thus: CPE assay against EV-A71 in RD cells. Type of assay: cell-based, Enterovirus 71 (EV-A71). The conditions noted are these: Enterovirus A, EVA71, RD, read-out: EC50 against EV-A71.
Assay [2] has as its system EV-A71. As to the kind of experiment: Viral binding assay. The conditions noted are these: qRT-PCR; PTC-209HBr 3.2 μM, enviroxime 0.32 μM, pirodavir 0.64 μM; MOI 30. Type of assay: cell-based. In general terms: Real-time PCR tracks product formation cycle by cycle.
The subject of assay [3] is EV-A71. The assay can be described thus: Viral entry assay. The class given is cell-based. The conditions noted are these: qRT-PCR; PTC-209HBr 3.2 μM, enviroxime 0.32 μM, pirodavir 0.64 μM; MOI 30.
For assay [4], the target named is EV-A71 VP1 (Human enterovirus 71, UniProt Q66478). Type of assay: binding. The conditions noted are these: MST, 500 nM VP1-EGFP.
Chain of EV-A71 VP1 (Q66478 566-862): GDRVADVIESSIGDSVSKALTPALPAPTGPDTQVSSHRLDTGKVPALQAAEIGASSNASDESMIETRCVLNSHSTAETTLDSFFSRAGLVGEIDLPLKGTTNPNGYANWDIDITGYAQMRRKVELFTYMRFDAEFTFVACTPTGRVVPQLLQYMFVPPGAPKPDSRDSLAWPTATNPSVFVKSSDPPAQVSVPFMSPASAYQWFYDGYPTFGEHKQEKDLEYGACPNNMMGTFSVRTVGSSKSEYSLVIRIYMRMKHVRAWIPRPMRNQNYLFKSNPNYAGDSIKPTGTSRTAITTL
Assay [5] addresses VP1 and hSCARB2 (Human enterovirus 71, UniProt Q66478). The assay can be described thus: IF assay of colocalization between VP1 and hSCARB2. Conditions: RD cells, vs untreated cells. Type of assay: cell-based.

Chain of VP1 and hSCARB2 (Q66478 324-565): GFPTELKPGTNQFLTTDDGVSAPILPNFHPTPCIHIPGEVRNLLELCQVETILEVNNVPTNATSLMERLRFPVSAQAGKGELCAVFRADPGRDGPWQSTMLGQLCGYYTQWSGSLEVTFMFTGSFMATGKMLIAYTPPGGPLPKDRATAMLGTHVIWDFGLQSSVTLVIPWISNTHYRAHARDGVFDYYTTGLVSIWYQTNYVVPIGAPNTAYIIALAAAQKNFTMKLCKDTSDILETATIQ
Chain of VP1 and hSCARB2 (Q66478 566-862): as the sequence (Q66478 566-862) above
Chain of VP1 and hSCARB2 (Q66478 70-323): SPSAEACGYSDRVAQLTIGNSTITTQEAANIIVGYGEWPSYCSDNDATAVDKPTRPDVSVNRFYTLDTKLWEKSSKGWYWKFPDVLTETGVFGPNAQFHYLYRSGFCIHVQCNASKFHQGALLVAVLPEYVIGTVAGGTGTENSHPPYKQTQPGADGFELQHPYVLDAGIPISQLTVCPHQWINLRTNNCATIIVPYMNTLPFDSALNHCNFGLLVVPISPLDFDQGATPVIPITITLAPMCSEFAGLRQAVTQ
Chain of VP1 and hSCARB2 (Q66478 2-69): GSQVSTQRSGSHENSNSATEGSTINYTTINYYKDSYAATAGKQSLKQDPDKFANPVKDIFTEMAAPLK

As to `CCOC(=O)c1ccc(OCCC2CCN(c3ccc(C)nn3)CC2)cc1` [Pirodavir, pirodavir], the EC50 (in general, the concentration at which the effect is half-maximal) in assay [1] stood at 5250 nM. The “Inhibition of EV-A71 binding (RNA level)” value in assay [2] is recorded as “dramatically inhibit”. Moreover, the “Inhibition of EV-A71 entry (RNA level)” value in assay [3] is “but not entry”.
With `CC(C)S(=O)(=O)n1c(N)nc2ccc(/C(=N/O)c3ccccc3)cc21` [Enviroxime, enviroxime], in assay [1], the EC50 was 178 nM. For the same compound, in assay [4], the “Kd VP1” value is “low binding affinity”. Moreover, the “Inhibition of EV-A71 binding (RNA level)” value in assay [2] was “little inhibited”. Further, the “Inhibition of EV-A71 entry (RNA level)” value in assay [3] is listed as “little inhibited”. For the same compound, the “Colocalization between VP1 and hSCARB2 in EV-A71-infected cells” value in assay [5] was “decreased”.
